Assay results taken from patent US4342827A, “Production of enzymes” (Public Health Laboratory Service, Center for Applied …, priority 1978, dated 1982).

These compounds were tested against T1, glycerol dehydrogenase (GDH) (Geobacillus stearothermophilus, UniProt P32816) (assay: GDH assay against analogous substrates, activities (Vmax) relative to glycerol). Conditions: 30° C., pH 8.5; substrate instead of glycerol.
T1 construct: crude, partially or highly purified (DEAE-cellulose, triazine dye-agarose, gel filtration)
Assay type: biochemical, Bacillus stearothermophilus
Protocol: The thermostable GDH enzymes produced from the strains of Bacillus stearothermophilus described above typically have a structure composed of four identical or similar sub-units each of molecular weight about 60,000 giving an overall molecular weight of about 240,000±30,000 daltons. When homogeneous and tested by the assay method described below they have a specific activity of at least 5 and normally about 10 to 30 units per mg protein at 30° C. and pH 8.5. When tested under similar conditions against analogous substrates the activities (Vmax) relative to glycerol (100%) were:
Assays for GDH activity were carried out by the following procedure and all references to activities in the present description and claims refer to activity as measured by this assay.
(i) 0.25 M Triethanolamine-HCl (pH 8.5).
(iii) 10 mg/ml NAD (nicotinamide adenine dinucleotide)
600 μl, H2 O, 200 μl triethanolamine-HCl solution, 25 μl NAD solution and 5 to 200 μl of the sample to be assayed were mixed in a cuvette (pathlength 1 cm.). After pre-equilibration to attain 30° C., 100 μl of glycerol solution was added to initiate the reaction.
The reduction of NAD was followed by spectrophotometric means, by observing the absorbance of the solution at 340 nm. Either a water or reagent blank was used, and units were expressed as μmoles of NADH formed per minute at 30° C. with dilution to give ΔOD340 in the range 0.06 to 0.12 per minute.

T1 sequence (P32816 whole entry): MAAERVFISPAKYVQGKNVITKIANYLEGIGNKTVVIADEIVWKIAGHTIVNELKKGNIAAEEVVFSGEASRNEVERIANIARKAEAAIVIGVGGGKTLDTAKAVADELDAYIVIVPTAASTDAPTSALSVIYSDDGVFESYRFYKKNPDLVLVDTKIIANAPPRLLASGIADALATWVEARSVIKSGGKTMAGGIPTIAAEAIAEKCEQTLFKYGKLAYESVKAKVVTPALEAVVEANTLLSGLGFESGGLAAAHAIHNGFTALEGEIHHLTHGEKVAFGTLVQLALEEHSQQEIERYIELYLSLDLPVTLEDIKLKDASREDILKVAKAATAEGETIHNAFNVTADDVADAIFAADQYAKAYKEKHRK

Row | Compound | activity (Vmax) relative to glycerol (100%) [%]
1 | O=C(O)C(O)CO (stereo not drawn) [glyceric acid] | < 10
2 | CC(O)CO (stereo not drawn) [propane1, 2 diol] | 165
3 | OCCCO [propane1, 3diol] | 16
4 | OCCC(O)S (stereo not drawn) [3-mercapto-propane1, 3 diol] | 49
5 | O=C(CO)CO [dihydroxyacetone] | < 10

Same assay, conditions: high concentrations

Row | Compound | effect on GDH activity
6 | N [NH4^+ ions] | inhibited
